Columns and labels:
[1] = target: T1, ribonucleotide reductase (RR) (Mus musculus, UniProt P07742+P11157); test: RR inhibition in tumor and bone marrow of EMT7 tumor-bearing mice over 5 days of chemotherapy; assay type: in vivo; conditions: balb/C mice with EMT7 tumors, 125 mg/kg Gem every other day or 500 mg/kg HU daily, relative to untreated (control) mice
T1 construct: from tissue; host or cells: EMT7 mouse mammary carcinoma tumour and bone marrow of female balb/C mice
T1 sequence (P07742 1-792): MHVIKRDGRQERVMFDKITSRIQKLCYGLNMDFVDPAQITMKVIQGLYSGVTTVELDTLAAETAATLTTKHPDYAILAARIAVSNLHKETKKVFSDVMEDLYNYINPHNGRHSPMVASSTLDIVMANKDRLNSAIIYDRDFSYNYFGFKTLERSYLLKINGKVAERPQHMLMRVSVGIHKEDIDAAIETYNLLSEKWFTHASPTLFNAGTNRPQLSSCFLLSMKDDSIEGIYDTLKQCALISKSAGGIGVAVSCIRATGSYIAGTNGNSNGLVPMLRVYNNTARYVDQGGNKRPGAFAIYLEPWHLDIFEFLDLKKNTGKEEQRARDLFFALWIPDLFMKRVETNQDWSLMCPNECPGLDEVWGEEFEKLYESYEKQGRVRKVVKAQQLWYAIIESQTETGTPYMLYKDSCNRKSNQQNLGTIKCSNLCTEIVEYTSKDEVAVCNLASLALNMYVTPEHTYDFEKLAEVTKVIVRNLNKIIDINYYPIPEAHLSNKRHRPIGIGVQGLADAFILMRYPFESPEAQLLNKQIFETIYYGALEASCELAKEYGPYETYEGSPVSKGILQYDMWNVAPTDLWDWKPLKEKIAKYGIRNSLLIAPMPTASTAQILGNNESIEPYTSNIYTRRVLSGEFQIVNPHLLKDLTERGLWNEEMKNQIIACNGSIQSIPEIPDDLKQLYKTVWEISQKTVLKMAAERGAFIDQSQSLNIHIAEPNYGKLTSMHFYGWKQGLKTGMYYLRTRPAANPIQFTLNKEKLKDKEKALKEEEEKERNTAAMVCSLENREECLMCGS
T1 sequence (P11157 1-390): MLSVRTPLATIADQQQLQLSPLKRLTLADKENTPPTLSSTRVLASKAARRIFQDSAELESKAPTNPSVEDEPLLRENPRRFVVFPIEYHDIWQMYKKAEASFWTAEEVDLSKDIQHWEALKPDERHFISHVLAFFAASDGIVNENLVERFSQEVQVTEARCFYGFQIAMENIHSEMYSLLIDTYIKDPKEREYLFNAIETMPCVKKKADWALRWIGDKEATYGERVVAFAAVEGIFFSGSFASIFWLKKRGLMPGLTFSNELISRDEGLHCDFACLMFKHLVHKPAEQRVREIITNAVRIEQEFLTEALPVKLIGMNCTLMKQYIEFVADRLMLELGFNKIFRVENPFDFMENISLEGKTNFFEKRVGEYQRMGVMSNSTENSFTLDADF
Procedure: Female balb/C mice were implanted subcutaneously with approximately 10^6 EMT7 mouse mammary carcinoma cells in matrigel and allowed to reach ca.1500 mm^3.
(§1) Mice were labeled with 2H2O with an i.p. bolus and treatment with either 125 mg/kg gemcitabine (Gem) or 500 mg/kg HU began. Gem was administered every other day, HU daily. At then end of 5 days tumors were removed, measured, homogenized and DNA was isolated as described, supra. Bone marrow was isolated using standard techniques. Bone marrow DNA was isolated as described, supra. GC/MS analysis was described as carried out, and calculations of RR activity and cell proliferation were carried out for both tumor and bone marrow tissues. Tumor volume was also measured by use of a caliper as is standard in the art.

[2] = target: T2, ribonucleotide reductase (RR) (Homo sapiens, UniProt P23921+P31350); test: RR activity measured by 2H2O in SW1573 cells; assay type: cell-based; parameters: endogenous in cells; host or cells: SW1573 non-small cell lung carcinoma cells; conditions: 24 hours; for RR activity, % of control: level reached with increasing doses
T2 sequence (P23921 1-792): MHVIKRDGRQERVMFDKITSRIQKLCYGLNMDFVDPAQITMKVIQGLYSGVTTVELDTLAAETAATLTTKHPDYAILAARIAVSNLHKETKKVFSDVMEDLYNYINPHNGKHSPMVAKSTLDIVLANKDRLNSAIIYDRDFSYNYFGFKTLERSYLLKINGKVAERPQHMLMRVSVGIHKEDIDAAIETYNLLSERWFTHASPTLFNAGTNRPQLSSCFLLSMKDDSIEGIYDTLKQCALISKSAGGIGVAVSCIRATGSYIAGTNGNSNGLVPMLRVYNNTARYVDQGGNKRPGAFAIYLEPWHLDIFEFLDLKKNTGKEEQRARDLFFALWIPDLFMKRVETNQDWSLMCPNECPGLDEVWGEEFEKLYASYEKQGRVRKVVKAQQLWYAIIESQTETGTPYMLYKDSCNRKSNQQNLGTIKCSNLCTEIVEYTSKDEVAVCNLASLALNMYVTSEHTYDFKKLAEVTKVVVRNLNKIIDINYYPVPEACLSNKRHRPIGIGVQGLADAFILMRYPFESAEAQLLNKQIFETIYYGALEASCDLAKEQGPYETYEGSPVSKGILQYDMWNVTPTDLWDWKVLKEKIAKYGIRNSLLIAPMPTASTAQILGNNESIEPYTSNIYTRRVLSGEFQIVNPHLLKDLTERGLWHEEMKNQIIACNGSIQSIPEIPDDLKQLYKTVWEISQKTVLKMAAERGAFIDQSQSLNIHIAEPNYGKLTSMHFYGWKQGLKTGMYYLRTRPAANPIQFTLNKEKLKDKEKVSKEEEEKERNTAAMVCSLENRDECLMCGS
T2 sequence (P31350 1-389): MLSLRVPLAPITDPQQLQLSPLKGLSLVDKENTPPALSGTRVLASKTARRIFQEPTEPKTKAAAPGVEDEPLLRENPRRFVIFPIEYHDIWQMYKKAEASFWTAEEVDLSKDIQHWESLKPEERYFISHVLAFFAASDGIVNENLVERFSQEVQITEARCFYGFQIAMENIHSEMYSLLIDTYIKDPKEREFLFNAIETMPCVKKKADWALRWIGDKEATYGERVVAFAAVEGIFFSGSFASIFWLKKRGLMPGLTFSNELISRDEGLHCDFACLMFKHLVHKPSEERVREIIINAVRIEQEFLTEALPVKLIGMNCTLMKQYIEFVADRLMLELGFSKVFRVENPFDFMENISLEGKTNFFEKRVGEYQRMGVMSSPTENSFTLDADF
Procedure: Ribonucleotide reductase catalyzes the conversion of ribonucleotides to deoxyribonucleotides (FIG. 1A). A unique feature of RR is the response of nucleoside metabolism to its inhibition. When RR is inhibited, the activity of thymidine kinase is increased. […] Traditionally, this effect is assayed in vitro by measuring the increase in the concentration of free TTP pool relative to the other deoxynucleotides. […] The salvage of deoxyadenosine is very low in normal cells allowing the measurement of DNA synthesis from the incorporation of de novo deoxyadenosine (see supra); furthermore since dAk activity is not affected by RR inhibition it can be used as the denominator for calculating fractional de novo thymidine synthesis. The relative inhibition of RR can be inferred from the reduction in de novo thymidine incorporation relative to dA into DNA. In a preferred embodiment of the invention, once the isotopic enrichment of dA and dT have been determined (as described, supra) for both a test and control subject or sample, the ratio of dT enrichment to dA enrichment is compared.
(§2) Non-small cell lung carcinoma cells (SW1573) were grown under standard conditions to approximately 50% confluence. Media was removed and replaced with media containing 4% ^2H2O, 1 µM dN's and hydroxyurea or gemcitabine at various concentrations. Cells were grown for and additional 24 hours after which they were harvested and frozen. Cell proliferation and RR inhibition was performed as described, supra.

[3] = test system: EMT7 mouse mammary carcinoma cells; test: In vivo tumor cell proliferation by 2H2O incorporation over 5 days of chemotherapy; conditions: balb/C mice with EMT7 tumors, 125 mg/kg Gem every other day or 500 mg/kg HU daily
Procedure: as §1, with “Female balb/C mice were implanted subcutaneously with approximately 10^6 EMT7 mouse mammary carcinoma cells in matrigel and allowed to reach ca.1500 mm^3. Mice” for “Mice”

[4] = test system: EMT7 mouse mammary carcinoma cells; test: Tumor volume by caliper over 5 days of chemotherapy; assay type: in vivo; conditions: balb/C mice with EMT7 tumors, 125 mg/kg Gem every other day or 500 mg/kg HU daily
Procedure: as §1, with “Female balb/C mice were implanted subcutaneously with approximately 10^6 EMT7 mouse mammary carcinoma cells in matrigel and allowed to reach ca.1500 mm^3. Mice” for “Mice”

SW1573 cells = test: Cell proliferation measured by 2H2O in SW1573 cells; assay type: cell-based; conditions: 24 hours
Procedure: as §2

[5] = target: T2, ribonucleotide reductase (RR); test: RR activity measured by 2H2O in hydroxyurea-treated MCF7 cells; assay type: cell-based; parameters: endogenous in cells; conditions: 24 hours
Procedure: Ribonucleotide reductase catalyzes the conversion of ribonucleotides to deoxyribonucleotides (FIG. 1A). A unique feature of RR is the response of nucleoside metabolism to its inhibition. When RR is inhibited, the activity of thymidine kinase is increased. […] Traditionally, this effect is assayed in vitro by measuring the increase in the concentration of free TTP pool relative to the other deoxynucleotides. […] In a preferred embodiment of the invention, once the isotopic enrichment of dA and dT have been determined (as described, supra) for both a test and control subject or sample, the ratio of dT enrichment to dA enrichment is compared.
Mammary carcinoma cells (MCF7) were grown under standard conditions to approximately 50% confluence. […] Cells continued to grow for 24 hours after which they were harvested, counted by coulter counter, and frozen.
Genomic DNA was isolated from frozen cells using a Qiagen Tissue Prep Kit according to the manufacturer's instructions. DNA digestion was performed after measuring the ratio of 260/280 to quantify the amount of isolated DNA. […]
HPLC Purification: dA and T were then isolated at room temperature by using a Waters HPLC system coupled with a UV detector. […] Normal nucleosides (dC, dG, dT, dA) were detected by UV absorption at 254 nm. […]

MCF7 cells = test: Cell proliferation in hydroxyurea-treated MCF7 cells (2H2O labeling and coulter counter); assay type: cell-based; conditions: 24 hours, hydroxyurea at various concentrations

bone marrow cell RR activity [1] | tumor cell RR activity [1] | inhibition at 0.0016 µM ([2]; 1.6 nM) [%] | RR activity ([2]; 48 nM) | RR activity, % of control [2] | concentration at which apparent maximal RR inhibition occurred [2] | inhibition at 6 µM [2] [%] | RR activity ([5]; doses 50 μM HU and above) | activity of RR ([5]; hydroxyurea at various concentrations) | Compound | tumor cell proliferation [3] | tumor volume [4] | concentration at which inhibition of cell proliferation was evident (SW1573 cells) [µM] | rate of cell proliferation (MCF7 cells)
inhibited | inhibited | 70 | nearly abolishes | ~0 % of control | – | – | – | – | Nc1ccn([C@@H]2O[C@H](CO)[C@@H](O)C2(F)F)c(=O)n1 [gemcitabine] | effect of HU and Gem on cell proliferation is observed | no change | – | –
inhibited | inhibited | – | – | −20 % of control | 6 µM | 80 | dramatically inhibited | reduces | NC(=O)NO [hydroxyurea] | effect of HU and Gem on cell proliferation is observed | no change | 20 | reduces the rate of cell proliferation
